“Also recorded” adds a separate entry of the source.
Tests used:
Th17 cells = assay: Intracellular metabolites by mass spectrometry and pathway analysis, Th17; type: cell-based, mouse; settings: for Hits: Th17 Pathway
Method: Glucose uptake assays were performed as described elsewhere (see, e.g., Macintyre et al., 2014 Cell Metab. 20(1):61-72). Naïve CD4+ T cells were differentiated into Th1 and Th17 cells, in triplicate, in the presence or absence of CB839 over 5 days and spun down after reisolation using CD4 kit as previously described. Cells were washed 2× in PBS, counted, then rested in 1 mL Kreb's Ringers HEPES (KRH) for 10 minutes. Cells were spun and resuspended to 5×10^5 cells/50 uL KRH for glucose uptake assay. Briefly, cells were […]. Cells incubated for 10 minutes at 37° C. Immediately after incubation, reaction was quenched with 200 μM phloretin (Calbiochem, Cat #: 524488). Cells were spun, washed, and then resuspended in scint fluid for counting on Beckman-Coulter scintillation counter. Pathway analysis of altered metabolites was performed using Metaboanalyst 3.0 (metaboanalyst. ca/faces/home.xhtml).
Differentiation: CD4 cells were isolated as previously described and differentiated in subset-specific medium (in triplicate) for 3 days, split at day 3 with new media and IL-2, then allowed to incubate a further 2 days. At day 5, wells were combined, cells washed lx in MACS buffer, re-isolated for CD4 via AutoMACS Pro automated magnetic separator (Miltenyi, Cat #: 130-092-545). Metabolites from Th1 and Th17 cells were extracted as described above.
Differentiation. CD4 cells were isolated as previously described and differentiated in subset-specific medium in the presence of vehicle or CB839 (in triplicate) for 3 days, split at day 3 with new media and IL-2, then allowed to incubate a further 2 days. At day 5, wells were combined, cells washed 1× in MACS buffer and re-isolated for CD4 via AutoMACS Pro automated magnetic separator (Miltenyi, Cat #: 130-092-545). Metabolites from Th1 and Th17 cells were extracted and analyzed by LC-HRMS using a Q-Exactive as described previously (Gerriets et al., 2015). Data were range scaled and analyzed using Metaboanalyst 3.5 (Xia and Wishart, 2002) to generate heat maps and for principle component analyses.

Treg cells = assay: CD4 T cells in Treg skewing conditions, flow cytometry; settings: 5 days, CB839 vs vehicle
CD8 T cells = CD8 T cells activated on αCD3/CD28 + IL2, flow cytometry
[1] = CD8 T cells, five days stimulation

Question: `O=C(Cc1cccc(OC(F)(F)F)c1)Nc1ccc(CCCCc2nnc(NC(=O)Cc3ccccn3)s2)nn1` [CB839] was tested. Which “2-hydroxyglutarate (2-HG)” value (Th17 cells; Th17, CB839-treated vs vehicle) did it give?
Answer: The value was “increased in both Th1 and Th17”.

Question: What about the “intracellular α-KG” value (Th17 cells; Th17, CB839-treated vs vehicle) of the same compound?
Answer: Its value is “reduced in CB839-treated Th1, but not Th17 cells”.

Question: What about the “programs of intracellular metabolites” value (Th17 cells; Th17, differentiated with CB839, 5 days) of the same compound?
Answer: Its value is “more pronounced in Th17 than in Th1 cells; also recorded: shifted”.

Question: And the “glutamate and aspartate levels” value (Th17 cells; Th17, over five days)?
Answer: Its value is “rapidly decreased”.

Question: And the “steady state levels of glutamine” value (Th17 cells; Th17, over five days)?
Answer: The value was “rapidly increased”.

Question: And the Hits (Th17 cells; Alanine, aspartate and glutamate metabolism)?
Answer: Its Hits is 5.

Question: What about the Hits (Th17 cells; Pentose phosphate pathway) of the same compound?
Answer: Its Hits is 5.

Question: And the Hits (Th17 cells; Phenylalanine, tyrosine and tryptophan biosynthesis)?
Answer: The Hits was 2.

Question: And the Hits (Th17 cells; Purine metabolism)?
Answer: Its Hits is 8.

Question: And the Treg differentiation (Treg cells)?
Answer: The Treg differentiation was “unchanged”.

Question: What about the “Granzyme B” value (CD8 T cells; CD8 T cells, 4-5 days stimulation) of the same compound?
Answer: Its value is “increased levels of Granzyme B”.

Question: And the Eomes (CD8 T cells; [1])?
Answer: The Eomes was “increased levels”.

Question: What about the Perforin (CD8 T cells; [1]) of the same compound?
Answer: Its Perforin is “increased”.

Question: And the Tbet (CD8 T cells; [1])?
Answer: The Tbet was “increased levels”.

Question: And the markers of proliferation (CD8 T cells; [1])?
Answer: The markers of proliferation was “increased levels”.

Question: What about the “portion of CD8 T cells expressing inhibitory receptors Lag3 and PD-1” value (CD8 T cells; [1]) of the same compound?
Answer: Its value is “increased”.

Question: And the phospho-S6 (CD8 T cells; CTL in the presence of IL2)?
Answer: The phospho-S6 was “enhanced phospho-S6”.
